Key:
[1] = system: IRF3/IFN-dependent luciferase (LUC) in THF-ISRE; assay type: cell-based, human
[2] = system: NF-κB-dependent LUC in THF reporter cells; assay type: cell-based, human
[3] = system: IRF3/IFN-dependent genes in THF; assay type: cell-based, human
[4] = system: NF-κB-dependent genes (IL8, IL1β, MIP1α) in THF; assay type: cell-based, human
[5] = system: Chikungunya virus (CHIKV); test: microbe, parasite or virus in culture; assay type: cell-based
[6] = system: Venezuelan Equine Encephalitis Virus (VEEV); test: microbe, parasite or virus in culture; assay type: cell-based
Vaccinia Virus (VACV) = assay type: cell-based
West Nile Virus (WNV) = assay type: cell-based
Sindbis virus (SINV) = assay type: cell-based; settings: 48 h
[7] = system: IRF3 S386 phosphorylation; assay type: cell-based, human
human STING-CTD = molecular target: T1, human STING-CTD (Homo sapiens, UniProt Q86WV6); test: Thermal shift assay (differential scanning fluorimetry), human STING-CTD; assay type: binding; settings: 1 μg recombinant protein, SYPRO Orange, various concentrations
T1 construct: human STING-C-terminal domain (CTD; AA 137-379); 6xHIS; made in house; host or cells: E. coli BL21 (DE3)pLysS
T1 sequence (Q86WV6 137-379): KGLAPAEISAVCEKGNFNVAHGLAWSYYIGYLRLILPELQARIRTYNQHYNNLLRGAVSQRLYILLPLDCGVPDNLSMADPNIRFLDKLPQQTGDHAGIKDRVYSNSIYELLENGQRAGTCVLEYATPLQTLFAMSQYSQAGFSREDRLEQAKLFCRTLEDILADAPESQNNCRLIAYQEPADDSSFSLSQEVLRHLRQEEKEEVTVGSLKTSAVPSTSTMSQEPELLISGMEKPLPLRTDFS

mouse STING-CTD = molecular target: T2, mouse STING-CTD (Mus musculus, UniProt Q3TBT3); test: Thermal shift assay (differential scanning fluorimetry), mouse STING-CTD; assay type: binding; settings: 1 μg recombinant protein, SYPRO Orange, various concentrations
T2 construct: mouse STING-CTD (AA 137-378); 6xHIS; made in house; host or cells: E. coli BL21 (DE3)pLysS
T2 sequence (Q3TBT3 137-378): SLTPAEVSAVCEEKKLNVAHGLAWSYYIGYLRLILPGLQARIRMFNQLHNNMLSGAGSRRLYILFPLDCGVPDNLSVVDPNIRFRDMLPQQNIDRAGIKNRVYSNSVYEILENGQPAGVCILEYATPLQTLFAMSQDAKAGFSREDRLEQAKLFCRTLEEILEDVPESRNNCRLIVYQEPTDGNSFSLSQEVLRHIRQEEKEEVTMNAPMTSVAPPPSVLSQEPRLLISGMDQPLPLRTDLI

THP-1 cells = assay type: cell-based, human
Mx2 and ISG56 proteins = assay type: cell-based, human
[8] = system: human peripheral blood mononuclear cells (PBMCs); assay type: cell-based
[9] = system: human umbilical microvascular endothelial cells; assay type: cell-based
[10] = system: secreted bioactive type I or III interferon
IRF3 phosphorylation = test: Immunoblot of IRF3 phosphorylation in RAW264.7 cells; assay type: cell-based, mouse; settings: RAW264.7, 100 μM DMXAA
Excerpt: (§1) Multiple molecular analogs of G10 were thus constructed in an attempt to identify one that is active in both human and mouse cells. While this allowed characterization of essential and nonessential moieties within the molecule (FIG. 17), no derivatives were identified that were active across species. […] As such, the compound has been explored for multiple immunotherapeutic uses including anti-angiogenesis (Cao Z et al, Cancer Res 61, 1517-1521 (2001); incorporated by reference herein), vaccine adjuvanticity (Tang C K et al, PLoS ONE 8, e60038 (2013); incorporated by reference herein), anti-tumor immunology and antiviral activity (Guo F et al, Antimicrob Agents Chemother 59, 1273-1281 (2015); incorporated by reference herein). Patterns of DMXAA-stimulated innate immune activation in murine cells were then explored to evaluate their resemblance with those induced by G10 in human cells. FIG. 11A illustrates that DMXAA-induced IRF3 phosphorylation in RAW264.7 macrophage-like cells is detectable by 1 h post-treatment. […]

[11] = system: innate antiviral genes IFNβ, ISG15, IFIT2, Viperin; test: qPCR of innate antiviral genes in RAW264.7 cells; assay type: cell-based, mouse; settings: RAW264.7, 8 h, range of DMXAA concentrations
Excerpt: as §1
Total RNA was isolated from cells and DNased using a DNA Free RNA Isolation kit according to the manufacturer's protocol (Zymo Research) and quantified by UV spectrometry. […]

[12] = system: Chikungunya virus (CHIKV); test: Mouse model of CHIKV infection, serum viral titers; assay type: in vivo, C57Bl/6J mice

O=C(NCc1ccco1)c1ccc2c(c1)N(Cc1c(F)cccc1Cl)C(=O)CS2 [G10, 4-(2-chloro-6-fluorobenzyl)-N-(furan-2-ylmethyl)-3-oxo-3,4-dihydro-2H-benzo[b][1,4]thiazine-6-carboxamide]
IFN/IRF3-dependent LUC expression [1]: able to induce LUC expression in a dose-dependent manner | IRF3/IFN-dependent LUC expression in cells lacking IRF3 [1]: abrogated | IRF3/IFN-dependent LUC expression in cells lacking STAT1 [1]: induce LUC expression in the absence of STAT1 | IRF3/IFN-dependent LUC induction in cells lacking IPS-1 [1]: strong LUC induction | IRF3/IFN-dependent LUC induction in cells lacking STING [1]: fail to activate appreciable LUC | LUC signal in high-throughput screen [1]: third highest signal of all those screened | NF-κB-dependent LUC transcription [2]: no G10-associated stimulation of NF-κB-dependent transcription was detected | IFNβ and IFNλ1 mRNA transcription [3]: leads to transcription of both IFNβ and IFNλ1 mRNAs | ISG54, ISG15 and Viperin mRNA in cells lacking IPS-1 [3]: highly transcribed | ISG54, ISG15 and Viperin mRNA in cells lacking STING [3]: remain comparatively unstimulated | Mx2 and OAS mRNA induction [3]: substantial induction | mRNA of IRF3/IFN-dependent genes (ISG54, ISG56, ISG15, Viperin) [3]: led to transcription of cellular genes triggered by IRF3/IFN-dependent signaling | mRNA synthesis of endogenous NF-κB-dependent genes (IL8, IL1β, MIP1α) [4]: failed to stimulate mRNA synthesis | CHIKV replication in cells lacking IRF3 [5]: ability of G10 to block replication of CHIKV and VEEV is lost | reduction of CHIKV replication [5]: by over three logs | CHIKV replication in cells lacking IPS-1 ([5]; 48 h): diminishes replication of all three virus types by multiple logs | CHIKV replication in cells lacking STING ([5]; 48 h): ability of G10 to block virus replication is absent | IC90 ([5]; Chikungunya virus, read-out: IC90 CHIKV replication): 8.01 µM | VEEV replication in cells lacking IRF3 [6]: ability of G10 to block replication of CHIKV and VEEV is lost | VEEV replication in cells lacking IPS-1 ([6]; 24 h): diminishes replication of all three virus types by multiple logs | VEEV replication in cells lacking STING ([6]; 24 h): ability of G10 to block virus replication is absent | IC90 ([6]; Venezuelan equine encephalitis virus, read-out: IC90 VEEV replication): 24.6 µM | reduction of VACV growth (Vaccinia Virus (VACV)): by approximately one log | reduction of WNV growth (West Nile Virus (WNV)): by less than one log | SINV replication in cells lacking IPS-1 (Sindbis virus (SINV)): diminishes replication of all three virus types by multiple logs | IRF3 S386 phosphorylation in cells lacking STING [7]: elimination of G10-induced IRF3 S386 phosphorylation | IRF3 phosphorylation in cells lacking IPS-1 [7]: functional | phosphorylation of IRF3 S386 [7]: stimulates phosphorylation of IRF3 | time post exposure at which phosphorylation of IRF3 S386 is detectable [7]: 30 m | thermal stability of purified human STING-CTD (human STING-CTD): did not increase the protein's thermal stability | thermal stability of purified mouse STING-CTD (mouse STING-CTD): did not increase the protein's thermal stability | IRF3 activation or IRF3-dependent gene expression in THP-1 (THP-1 cells): does not induce IRF3 activation or IRF3-dependent gene expression | synthesis of Mx2 and ISG56 proteins (Mx2 and ISG56 proteins): capable of triggering synthesis of Mx2 and ISG56 proteins | expression of IFIT1, IFIT2, IFNβ, ISG15, OAS and Viperin mRNA in PBMC [8]: to degrees that were proportional to compound concentration | transcription of NF-κB-dependent genes MIP1α and IL1β in PBMC [8]: also transcriptionally induced | expression of IRF3-, IFN- and NF-κB-dependent genes in endothelial cells [9]: responded to G10 exposure by expressing IRF3-, IFN-, and NF-κB-dependent genes | cytotoxicity (THF cells): low cytotoxicity even at high concentrations | IFN secretion by cells lacking IPS-1 [10]: significantly diminished relative to wild type cells | IFN secretion by cells lacking STING [10]: failed to secrete IFN | IFN secretion by wild type THF cells [10]: IFN secretion was detected

Cc1ccc2c(=O)c3cccc(CC(=O)O)c3oc2c1C [DMXAA, 5,6-dimethylxanthenone-4-acetic acid]
time post-treatment at which IRF3 phosphorylation is detectable (IRF3 phosphorylation): ≤ 1 h | transcription of IFNβ, ISG15, IFIT2 and Viperin [11]: dose-dependent transcription | serum associated CHIKV at 72 h post infection ([12]; 25 mg/kg intraperitoneally 3 h pre-infection, 1000 PFU CHIKV): undetectable by plaque assay | serum associated CHIKV at 72 h post infection ([12]; 25 mg/kg intraperitoneally 6 h post infection): still undetectable | serum associated CHIKV at 72 h post infection ([12]; mouse, in vivo): diminished relative to DMSO-treated animals but this difference was not statistically significant

Nc1nc2c(ncn2[C@@H]2O[C@@H]3COP(=O)(O)O[C@H]4[C@@H](O)[C@H](n5cnc6c(N)ncnc65)O[C@@H]4COP(=O)(O)O[C@@H]2[C@@H]3O)c(=O)[nH]1 [2′3′-cGAMP, reference compound]
mRNA synthesis of IFIT1, IFIT2, ISG15, Viperin, OAS, Mx2 over a concentration range, compared with G10 [3]: stronger mRNA synthesis | IRF3 S386 phosphorylation in cells lacking STING [7]: absence of IRF3 S386 phosphorylation | IRF3 phosphorylation in cells lacking IPS-1 [7]: remains intact | time post exposure at which phosphorylation of IRF3 S386 is detectable [7]: 1 h | expression of IFIT1, IFIT2, IFNβ, ISG15, OAS and Viperin mRNA in PBMC [8]: similarly capable of activating transcription of these genes
